Results published in the supplement of paper PMC8671470.

Test system: HL-60
Conditions: 72 h
Method in brief: (§1)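 In 384-well plates holding acoustically pre-printed compounds at five tenfold doses from 1 to 10,000 nM, in duplicate, fifteen myeloid leukaemia cell lines were grown in RPMI 1640 for 72 h at 37 °C with 5% CO2. Luminescent ATP viability was scaled between vehicle and a positive control at 10 µM. The IC50 was then taken from log-logistic dose–response fits with four parameters.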

SMILES | IC50 (cell viability) [µM]
CC(C)(C#N)c1cc(Cn2cncn2)cc(C(C)(C)C#N)c1 [Anastrozole] | > 10
O=C(O)C1=CC(=C(c2ccc(O)c(C(=O)O)c2)c2ccc(O)c(C(=O)O)c2)C=CC1=O [Aurintricarboxylic acid] | > 10

Test system: HEL
Conditions: 72 h
Method in brief: as §1

SMILES | IC50 (cell viability) [µM]
CN(C)C(=O)[C@H](O)[C@H](Cc1ccccc1)NC(=O)c1cc2cc(Cl)ccc2[nH]1 | > 10
COc1ccc(CNC(=O)Nc2ncc([N+](=O)[O-])s2)cc1 | > 10
CCOP(=O)(OCC)C(=Cc1cc(C(C)(C)C)c(O)c(C(C)(C)C)c1)P(=O)(OCC)OCC | > 10
COc1ccc(-c2ccccc2)cc1NS(=O)(=O)c1cc(Cl)cc(Cl)c1O | > 10
C[C@H](NC(=O)c1sccc1OCc1ccc(Cl)cc1)c1ccccc1 | > 10
O=C(O)c1cc(Cl)cc(Cl)c1O [3,5-Dichlorosalicylic Acid] | > 10
O=C(O)C(=O)CBr [3-bromopyruvic acid] | > 10
NS(=O)(=O)c1ccc([N+](=O)[O-])cc1 [4-Nitrobenzenesulfonamide] | > 10
Cc1ccccc1C(C(=O)NC1CCCCC1)N(C(=O)Cn1ccnc1C)c1cccc(F)c1 (stereo unspecified) [AGI-5198] | > 10
CC(C)(C#N)c1cc(Cn2cncn2)cc(C(C)(C)C#N)c1 [Anastrozole] | > 10
O=C(O)C1=CC(=C(c2ccc(O)c(C(=O)O)c2)c2ccc(O)c(C(=O)O)c2)C=CC1=O [Aurintricarboxylic acid] | 3.3

Test system: THP-1
Conditions: 72 h
Method in brief: as §1

SMILES | IC50 (cell viability) [µM]
CN(C)C(=O)[C@H](O)[C@H](Cc1ccccc1)NC(=O)c1cc2cc(Cl)ccc2[nH]1 | > 10
COc1ccc(CNC(=O)Nc2ncc([N+](=O)[O-])s2)cc1 | > 10
CCOP(=O)(OCC)C(=Cc1cc(C(C)(C)C)c(O)c(C(C)(C)C)c1)P(=O)(OCC)OCC | > 10
COc1ccc(-c2ccccc2)cc1NS(=O)(=O)c1cc(Cl)cc(Cl)c1O | > 10
C[C@H](NC(=O)c1sccc1OCc1ccc(Cl)cc1)c1ccccc1 | > 10
O=C(O)c1cc(Cl)cc(Cl)c1O [3,5-Dichlorosalicylic Acid] | > 10
O=C(O)C(=O)CBr [3-bromopyruvic acid] | > 10
NS(=O)(=O)c1ccc([N+](=O)[O-])cc1 [4-Nitrobenzenesulfonamide] | > 10
Cc1ccccc1C(C(=O)NC1CCCCC1)N(C(=O)Cn1ccnc1C)c1cccc(F)c1 (stereo unspecified) [AGI-5198] | > 10
CC(C)(C#N)c1cc(Cn2cncn2)cc(C(C)(C)C#N)c1 [Anastrozole] | > 10
O=C(O)C1=CC(=C(c2ccc(O)c(C(=O)O)c2)c2ccc(O)c(C(=O)O)c2)C=CC1=O [Aurintricarboxylic acid] | > 10

Test system: Mono-Mac-6
Conditions: 72 h
Method in brief: as §1

SMILES | IC50 (cell viability) [µM]
CN(C)C(=O)[C@H](O)[C@H](Cc1ccccc1)NC(=O)c1cc2cc(Cl)ccc2[nH]1 | > 10
COc1ccc(CNC(=O)Nc2ncc([N+](=O)[O-])s2)cc1 | > 10
CCOP(=O)(OCC)C(=Cc1cc(C(C)(C)C)c(O)c(C(C)(C)C)c1)P(=O)(OCC)OCC | 6.9
COc1ccc(-c2ccccc2)cc1NS(=O)(=O)c1cc(Cl)cc(Cl)c1O | > 10
C[C@H](NC(=O)c1sccc1OCc1ccc(Cl)cc1)c1ccccc1 | > 10
O=C(O)c1cc(Cl)cc(Cl)c1O [3,5-Dichlorosalicylic Acid] | > 10
O=C(O)C(=O)CBr [3-bromopyruvic acid] | > 10
NS(=O)(=O)c1ccc([N+](=O)[O-])cc1 [4-Nitrobenzenesulfonamide] | > 10
Cc1ccccc1C(C(=O)NC1CCCCC1)N(C(=O)Cn1ccnc1C)c1cccc(F)c1 (stereo unspecified) [AGI-5198] | > 10
CC(C)(C#N)c1cc(Cn2cncn2)cc(C(C)(C)C#N)c1 [Anastrozole] | > 10
O=C(O)C1=CC(=C(c2ccc(O)c(C(=O)O)c2)c2ccc(O)c(C(=O)O)c2)C=CC1=O [Aurintricarboxylic acid] | > 10

Test system: MOLM-13
Conditions: 72 h
Method in brief: as §1

SMILES | IC50 (cell viability) [µM]
CN(C)C(=O)[C@H](O)[C@H](Cc1ccccc1)NC(=O)c1cc2cc(Cl)ccc2[nH]1 | > 10
COc1ccc(CNC(=O)Nc2ncc([N+](=O)[O-])s2)cc1 | > 10
CCOP(=O)(OCC)C(=Cc1cc(C(C)(C)C)c(O)c(C(C)(C)C)c1)P(=O)(OCC)OCC | > 10
COc1ccc(-c2ccccc2)cc1NS(=O)(=O)c1cc(Cl)cc(Cl)c1O | > 10
C[C@H](NC(=O)c1sccc1OCc1ccc(Cl)cc1)c1ccccc1 | > 10
O=C(O)c1cc(Cl)cc(Cl)c1O [3,5-Dichlorosalicylic Acid] | > 10
O=C(O)C(=O)CBr [3-bromopyruvic acid] | > 10
NS(=O)(=O)c1ccc([N+](=O)[O-])cc1 [4-Nitrobenzenesulfonamide] | > 10
Cc1ccccc1C(C(=O)NC1CCCCC1)N(C(=O)Cn1ccnc1C)c1cccc(F)c1 (stereo unspecified) [AGI-5198] | > 10
CC(C)(C#N)c1cc(Cn2cncn2)cc(C(C)(C)C#N)c1 [Anastrozole] | > 10
O=C(O)C1=CC(=C(c2ccc(O)c(C(=O)O)c2)c2ccc(O)c(C(=O)O)c2)C=CC1=O [Aurintricarboxylic acid] | 2.64

Test system: MV4-11
Conditions: 72 h
Method in brief: as §1

SMILES | IC50 (cell viability) [µM]
CN(C)C(=O)[C@H](O)[C@H](Cc1ccccc1)NC(=O)c1cc2cc(Cl)ccc2[nH]1 | > 10
COc1ccc(CNC(=O)Nc2ncc([N+](=O)[O-])s2)cc1 | > 10
CCOP(=O)(OCC)C(=Cc1cc(C(C)(C)C)c(O)c(C(C)(C)C)c1)P(=O)(OCC)OCC | > 10
COc1ccc(-c2ccccc2)cc1NS(=O)(=O)c1cc(Cl)cc(Cl)c1O | > 10
C[C@H](NC(=O)c1sccc1OCc1ccc(Cl)cc1)c1ccccc1 | > 10
O=C(O)c1cc(Cl)cc(Cl)c1O [3,5-Dichlorosalicylic Acid] | > 10
O=C(O)C(=O)CBr [3-bromopyruvic acid] | > 10
NS(=O)(=O)c1ccc([N+](=O)[O-])cc1 [4-Nitrobenzenesulfonamide] | > 10
Cc1ccccc1C(C(=O)NC1CCCCC1)N(C(=O)Cn1ccnc1C)c1cccc(F)c1 (stereo unspecified) [AGI-5198] | > 10
CC(C)(C#N)c1cc(Cn2cncn2)cc(C(C)(C)C#N)c1 [Anastrozole] | > 10
O=C(O)C1=CC(=C(c2ccc(O)c(C(=O)O)c2)c2ccc(O)c(C(=O)O)c2)C=CC1=O [Aurintricarboxylic acid] | > 10

Test system: NOMO-1
Conditions: 72 h
Method in brief: as §1

SMILES | IC50 (cell viability) [µM]
CN(C)C(=O)[C@H](O)[C@H](Cc1ccccc1)NC(=O)c1cc2cc(Cl)ccc2[nH]1 | > 10
COc1ccc(CNC(=O)Nc2ncc([N+](=O)[O-])s2)cc1 | > 10
CCOP(=O)(OCC)C(=Cc1cc(C(C)(C)C)c(O)c(C(C)(C)C)c1)P(=O)(OCC)OCC | > 10
COc1ccc(-c2ccccc2)cc1NS(=O)(=O)c1cc(Cl)cc(Cl)c1O | > 10
